Assay results taken from ChEMBL document CHEMBL1201862, “PubChem BioAssay data set” (2004).
The source made the active and inactive calls.

Tests used:
[1] = molecular target: Voltage-gated inwardly rectifying potassium channel KCNH2 (Homo sapiens, UniProt Q12809); test: concentration-dependent hERG rescue from blockers – cell-based, thallium flux, dose response (AID 2121); format: ADME
[2] = molecular target: T1, Polyadenylate-binding protein 1 (Homo sapiens, UniProt P11940); test: MLLE binding blockers, Cy5 peptide tracer – biochemical, fluorescence polarization, Cy5-PAM2 peptide, secondary, miRNA deadenylation inhibitor project, dose response (AID 602260); format: functional; conditions: read-out: IC50_Mean
T1 sequence (P11940 whole entry, the tested form may be a part): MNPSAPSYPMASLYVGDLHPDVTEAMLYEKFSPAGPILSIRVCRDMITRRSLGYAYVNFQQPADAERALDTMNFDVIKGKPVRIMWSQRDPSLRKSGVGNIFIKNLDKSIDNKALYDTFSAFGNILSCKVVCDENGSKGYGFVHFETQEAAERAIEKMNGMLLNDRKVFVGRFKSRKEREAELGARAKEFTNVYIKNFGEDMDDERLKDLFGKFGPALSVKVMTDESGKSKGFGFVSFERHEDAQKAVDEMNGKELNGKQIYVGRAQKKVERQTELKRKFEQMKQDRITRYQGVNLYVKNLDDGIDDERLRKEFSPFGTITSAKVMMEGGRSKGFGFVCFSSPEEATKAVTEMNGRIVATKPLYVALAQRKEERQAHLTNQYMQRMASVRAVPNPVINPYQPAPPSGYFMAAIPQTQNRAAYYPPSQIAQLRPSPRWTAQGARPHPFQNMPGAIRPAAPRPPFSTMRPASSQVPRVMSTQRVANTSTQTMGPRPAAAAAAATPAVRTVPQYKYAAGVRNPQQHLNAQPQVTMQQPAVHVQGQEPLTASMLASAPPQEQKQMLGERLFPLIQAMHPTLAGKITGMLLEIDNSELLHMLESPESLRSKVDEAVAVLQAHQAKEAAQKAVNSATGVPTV

[3] = molecular target: T1, Polyadenylate-binding protein 1; test: MLLE domain peptide-binding blockers, IC50 – biochemical, fluorescence polarization, FITC-PAM2 peptide, dose response (AID 602259); format: functional; conditions: read-out: IC50_Mean
Prothrombin = Prothrombin (Homo sapiens, UniProt P00734); test: Thrombin 1536 HTS Dose Response Confirmation. [Related pubchem assays: 1046 (Thrombin 1536 HTS; hits were confirmed in this assay)]; format: functional
[4] = molecular target: T2, RNA-binding protein pos-1 (Caenorhabditis elegans, UniProt G5EF15); test: disruptors of C. elegans POS-1 RNA interaction – biochemical, fluorescence polarization, dose response (AID 1964);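 further: purified POS-1 fused to maltose binding protein made in E. coli; potency of compounds blocking POS-1 binding to fluorescent RNA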
T2 sequence (G5EF15 whole entry): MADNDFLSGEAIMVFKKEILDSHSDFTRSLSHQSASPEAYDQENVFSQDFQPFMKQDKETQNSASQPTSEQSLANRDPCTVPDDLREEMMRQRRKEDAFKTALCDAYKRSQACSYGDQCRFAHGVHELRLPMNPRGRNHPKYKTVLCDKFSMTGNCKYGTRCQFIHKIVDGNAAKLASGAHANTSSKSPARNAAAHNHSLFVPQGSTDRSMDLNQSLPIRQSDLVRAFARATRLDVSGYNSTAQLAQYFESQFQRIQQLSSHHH

[5] = Counterscreen for IDE inhibitors: Luminescence-based cell-based high throughput dose response assay to identify compounds that are cytotoxic to HEK cells. [Related pubchem assays: 434962 (Primary screen (IDE inhibitors in singlicate)), 449730 (Counterscreen (Cytotoxicity in triplicate)), 435028 (Confirmation (IDE inhibitors in triplicate)) …; format: functional; conditions: HEK293
[6] = molecular target: T3, Zinc finger protein mex-5 (Caenorhabditis elegans, UniProt Q9XUB2); test: potency of MEX-5 RNA-binding blockers – biochemical, C. elegans, fluorescence polarization, dose response (AID 1960)
T3 sequence (Q9XUB2 whole entry): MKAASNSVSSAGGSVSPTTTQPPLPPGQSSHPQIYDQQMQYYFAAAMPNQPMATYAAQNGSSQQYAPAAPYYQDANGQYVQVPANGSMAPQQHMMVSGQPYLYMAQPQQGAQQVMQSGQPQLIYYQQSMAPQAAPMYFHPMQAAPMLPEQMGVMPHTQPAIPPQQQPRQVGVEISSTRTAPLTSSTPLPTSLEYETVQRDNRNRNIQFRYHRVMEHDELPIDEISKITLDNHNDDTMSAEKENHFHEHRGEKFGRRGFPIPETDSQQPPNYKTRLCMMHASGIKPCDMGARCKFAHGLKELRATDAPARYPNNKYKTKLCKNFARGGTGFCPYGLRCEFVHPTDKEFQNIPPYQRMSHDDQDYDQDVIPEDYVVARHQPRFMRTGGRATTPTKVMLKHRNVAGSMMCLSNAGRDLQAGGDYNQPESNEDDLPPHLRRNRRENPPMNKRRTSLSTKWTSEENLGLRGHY

Insulin-degrading enzyme = molecular target: T4, Insulin-degrading enzyme (Homo sapiens, UniProt P14735); test: Dose Response: Fluorescence polarization-based cell-based high throughput dose response assay for inhibitors of insulin-degrading enzyme (IDE). [Related pubchem assays: 434962 (Primary screen (IDE inhibitors in singlicate)), 449730 (Counterscreen (Cytotoxicity in triplicate)), 435028 (Confirmation (IDE inhibitors in triplicate)), 434984 (Summary …; format: functional
T4 sequence (P14735 whole entry): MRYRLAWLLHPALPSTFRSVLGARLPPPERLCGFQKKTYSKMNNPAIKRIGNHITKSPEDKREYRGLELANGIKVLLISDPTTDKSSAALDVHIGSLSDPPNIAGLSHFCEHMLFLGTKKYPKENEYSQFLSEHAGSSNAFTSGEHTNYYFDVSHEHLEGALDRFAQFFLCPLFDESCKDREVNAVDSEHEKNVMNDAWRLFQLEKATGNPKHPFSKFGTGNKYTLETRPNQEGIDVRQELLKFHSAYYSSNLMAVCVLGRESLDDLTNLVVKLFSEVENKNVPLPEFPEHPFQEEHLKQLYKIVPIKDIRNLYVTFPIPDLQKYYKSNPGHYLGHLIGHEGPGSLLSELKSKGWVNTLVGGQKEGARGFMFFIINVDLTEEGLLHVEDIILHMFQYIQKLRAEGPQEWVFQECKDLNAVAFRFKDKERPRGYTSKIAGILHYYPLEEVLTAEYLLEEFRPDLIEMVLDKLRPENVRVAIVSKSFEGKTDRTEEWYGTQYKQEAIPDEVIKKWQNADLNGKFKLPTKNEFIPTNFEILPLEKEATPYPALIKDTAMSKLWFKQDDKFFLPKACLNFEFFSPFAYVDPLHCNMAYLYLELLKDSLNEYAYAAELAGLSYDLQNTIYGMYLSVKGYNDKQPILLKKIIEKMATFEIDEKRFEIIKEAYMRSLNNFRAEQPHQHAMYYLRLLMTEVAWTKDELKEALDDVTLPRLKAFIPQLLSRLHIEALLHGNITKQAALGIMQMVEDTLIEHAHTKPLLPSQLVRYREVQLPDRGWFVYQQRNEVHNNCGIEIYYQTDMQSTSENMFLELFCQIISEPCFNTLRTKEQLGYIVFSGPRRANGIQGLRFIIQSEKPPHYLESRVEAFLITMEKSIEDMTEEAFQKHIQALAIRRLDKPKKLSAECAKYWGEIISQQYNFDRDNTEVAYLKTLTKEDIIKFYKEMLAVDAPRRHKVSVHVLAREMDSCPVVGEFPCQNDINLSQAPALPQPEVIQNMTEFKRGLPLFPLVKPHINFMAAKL

Paired box protein Pax-8 = Paired box protein Pax-8 (Homo sapiens, UniProt Q06710); test: PAX8 transcriptional activity inhibition in RMG-I – RMG-I cells, luciferase, cherry-pick, dose response (AID 687027); format: functional, cell-based;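 further: luciferase reporter driven by Pax8 target thyroperoxidase promoter measured by SteadyGlo luminescence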
Chain of Paired box protein Pax-8 (Q06710 whole entry): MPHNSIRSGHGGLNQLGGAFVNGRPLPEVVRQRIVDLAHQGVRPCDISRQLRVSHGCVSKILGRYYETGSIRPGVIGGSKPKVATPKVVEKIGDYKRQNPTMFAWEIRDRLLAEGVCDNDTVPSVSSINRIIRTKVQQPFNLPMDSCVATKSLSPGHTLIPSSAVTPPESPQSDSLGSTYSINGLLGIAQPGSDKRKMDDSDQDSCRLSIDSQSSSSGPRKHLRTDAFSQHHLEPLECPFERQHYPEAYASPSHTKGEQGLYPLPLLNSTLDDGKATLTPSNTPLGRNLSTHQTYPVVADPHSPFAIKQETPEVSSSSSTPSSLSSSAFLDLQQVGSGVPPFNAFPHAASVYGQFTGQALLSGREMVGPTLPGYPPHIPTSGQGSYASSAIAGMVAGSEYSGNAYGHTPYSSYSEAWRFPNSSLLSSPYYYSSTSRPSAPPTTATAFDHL

[7] = potency of ADAM10 substrate cleavage blockers – biochemical, QFRET, dose response (AID 743254);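 further: ADAM10 enzyme with the DM2 quenched FRET peptide as substrate; EDANS fluorescence gain as the protease cuts the substrate; inhibitor potency against ADAM10 proteolytic activity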
[8] = OVCAR-3 cell viability loss – plate reader, dry powder samples, PAX8 inhibitor project, dose response (AID 743044); format: functional, cell-based
[9] = IGROV1 cell killing – plate reader, dry powder samples, PAX8 inhibitor project, dose response (AID 743043); format: functional, cell-based; conditions: IGROV-1
[10] = OVCAR8 cell viability loss – plate reader, dry powder samples, PAX8 project, dose response (AID 743197); format: functional, cell-based; conditions: OVCAR-8
[11] = molecular target: Disintegrin and metalloproteinase domain-containing protein 17 (Homo sapiens, UniProt P78536); test: inhibition of ADAM17 substrate cleavage – biochemical, quenched FRET substrate, counter-screen for ADAM10 exosite inhibitor project, dose response (AID 743253)
Chain of Disintegrin and metalloproteinase domain-containing protein 17 (P78536 whole entry, the tested form may be a part): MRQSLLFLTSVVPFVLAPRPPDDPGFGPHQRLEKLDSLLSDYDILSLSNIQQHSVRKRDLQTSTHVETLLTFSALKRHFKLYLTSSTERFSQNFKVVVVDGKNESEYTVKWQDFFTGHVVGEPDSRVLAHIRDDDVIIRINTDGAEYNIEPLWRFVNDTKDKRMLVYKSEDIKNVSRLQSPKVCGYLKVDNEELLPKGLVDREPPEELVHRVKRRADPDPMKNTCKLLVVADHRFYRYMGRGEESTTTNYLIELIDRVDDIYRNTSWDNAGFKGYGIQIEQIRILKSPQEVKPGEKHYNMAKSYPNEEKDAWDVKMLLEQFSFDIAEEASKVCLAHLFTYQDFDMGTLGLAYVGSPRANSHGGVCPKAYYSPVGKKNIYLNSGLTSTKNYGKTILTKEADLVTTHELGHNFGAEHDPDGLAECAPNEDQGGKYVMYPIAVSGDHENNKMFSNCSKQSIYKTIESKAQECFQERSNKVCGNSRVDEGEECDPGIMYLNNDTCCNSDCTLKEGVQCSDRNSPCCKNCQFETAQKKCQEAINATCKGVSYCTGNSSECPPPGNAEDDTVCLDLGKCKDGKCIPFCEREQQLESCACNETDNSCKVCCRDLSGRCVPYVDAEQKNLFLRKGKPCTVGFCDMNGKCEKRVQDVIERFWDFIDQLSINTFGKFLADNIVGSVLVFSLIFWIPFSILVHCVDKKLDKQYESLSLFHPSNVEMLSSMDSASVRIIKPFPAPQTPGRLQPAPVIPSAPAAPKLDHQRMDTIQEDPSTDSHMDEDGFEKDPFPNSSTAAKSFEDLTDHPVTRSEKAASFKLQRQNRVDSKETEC

[12] = growth inhibition of yeast DHODH-expressing 3D7 parasites – SYBR Green, dry powder samples, dose response (AID 1159570); format: functional, cell-based;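 further: parasite growth measured after 72 hours of compound exposure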
[13] = toxicity to human HepG2 hepatoma cells – cell-based, plate reader, dry powder samples, cytotoxicity control, dose response (AID 1159569); format: functional;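 further: inhibitor potency with signal falling toward the positive control level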
[14] = P. falciparum Dd2 growth inhibitors, dose response, SYBR Green, cherry-picked samples (AID 1159567); format: functional, cell-based
[15] = Dd2 malaria parasite growth inhibition potency – SYBR Green, dry powder samples, dose response (AID 1159566); format: functional, cell-based;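 further: potency for growth inhibition with lower SYBR green DNA signal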
[16] = growth inhibition of PfATP4-mutant resistant parasites – NITD609-resistant line, SYBR Green, dry powder, dose response (AID 1159571); format: functional, cell-based;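 further: parasites synchronized at ring stage by sorbitol before testing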
HEK293 [17] = test: cells; conditions: Homo sapiens
HEK293 [18] = test: cells; conditions: Homo sapiens; remark: listed apart in the source
Kallikrein-7 = Kallikrein-7 (Homo sapiens, UniProt P49862); test: Fluorescence Intensity-based biochemical primary high throughput dose response assay to identify activators of kallikrein-7 (K7) zymogen.
Chain of Kallikrein-7 (P49862 whole entry): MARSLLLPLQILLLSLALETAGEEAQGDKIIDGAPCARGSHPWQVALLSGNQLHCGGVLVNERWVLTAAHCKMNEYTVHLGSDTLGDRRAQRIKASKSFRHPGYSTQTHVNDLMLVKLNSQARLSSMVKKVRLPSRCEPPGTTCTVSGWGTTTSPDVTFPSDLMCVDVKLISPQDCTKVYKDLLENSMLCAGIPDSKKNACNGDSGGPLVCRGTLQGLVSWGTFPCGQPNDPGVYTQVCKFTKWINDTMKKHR

[19] = toxicity toward immortalized ovarian surface epithelium – cell-based, plate reader, dry powder samples, cytotoxicity control for PAX8 inhibitor project, dose response (AID 743045); format: functional
[20] = A2780 cell killing – plate reader, dry powder samples, cytotoxicity control, dose response (AID 743046); format: functional, cell-based
[21] = molecular target: Luciferin 4-monooxygenase (Photinus pyralis, UniProt P08659); test: Counter Screen for Luciferase-based Assay Positives. [Related pubchem assays: 620, 618, 411 ]
Chain of Luciferin 4-monooxygenase (P08659 whole entry): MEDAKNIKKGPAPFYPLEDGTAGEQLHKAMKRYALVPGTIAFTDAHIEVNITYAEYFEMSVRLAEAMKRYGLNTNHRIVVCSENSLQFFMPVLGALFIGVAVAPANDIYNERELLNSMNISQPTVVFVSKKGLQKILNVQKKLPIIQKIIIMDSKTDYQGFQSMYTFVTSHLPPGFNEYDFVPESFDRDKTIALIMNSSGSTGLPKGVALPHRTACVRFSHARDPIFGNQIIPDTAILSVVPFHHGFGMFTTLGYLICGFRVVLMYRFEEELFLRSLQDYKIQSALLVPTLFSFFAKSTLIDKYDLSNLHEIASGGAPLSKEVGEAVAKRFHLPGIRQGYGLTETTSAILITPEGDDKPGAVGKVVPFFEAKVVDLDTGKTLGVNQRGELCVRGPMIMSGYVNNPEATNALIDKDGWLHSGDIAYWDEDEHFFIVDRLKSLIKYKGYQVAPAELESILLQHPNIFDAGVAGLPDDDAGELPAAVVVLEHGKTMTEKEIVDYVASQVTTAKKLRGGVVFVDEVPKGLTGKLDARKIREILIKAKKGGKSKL

HT-1080 = test: HT1080 cell viability loss – fluorescence readout (AID 620); format: functional, cell-based; conditions: Homo sapiens
Cytochrome P450 2C19 = Cytochrome P450 2C19 (Homo sapiens, UniProt P33261); test: Cytochrome panel assay with activity outcomes. Panel member name: p450-cyp2c19 Compounds with AC50 equal or less than 10 uM are considered active; format: functional; conditions: read-out: AC50
Chain of Cytochrome P450 2C19 (P33261 whole entry): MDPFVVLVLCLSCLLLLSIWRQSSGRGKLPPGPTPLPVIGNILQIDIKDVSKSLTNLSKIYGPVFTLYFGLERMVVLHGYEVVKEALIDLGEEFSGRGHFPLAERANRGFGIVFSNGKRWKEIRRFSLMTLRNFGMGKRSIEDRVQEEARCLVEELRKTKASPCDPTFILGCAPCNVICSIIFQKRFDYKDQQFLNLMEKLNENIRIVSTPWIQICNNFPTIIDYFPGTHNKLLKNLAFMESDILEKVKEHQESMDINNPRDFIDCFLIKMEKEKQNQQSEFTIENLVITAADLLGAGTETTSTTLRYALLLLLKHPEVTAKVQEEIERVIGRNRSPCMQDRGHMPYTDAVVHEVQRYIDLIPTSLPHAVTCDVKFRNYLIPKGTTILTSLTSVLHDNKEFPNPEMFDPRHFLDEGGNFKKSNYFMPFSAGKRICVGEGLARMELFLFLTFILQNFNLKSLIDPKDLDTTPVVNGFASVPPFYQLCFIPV

[22] = CellTiter-Glo luminescence survival assay, SW480 colon tumor line, concentration-response curve, half-maximal inhibitory concentration (AID 1117338); format: functional
[23] = RKO cell viability reduction, dose response, CellTiter-Glo luminescence (AID 1117322); format: functional
[24] = cytotoxicity toward HCT116 cells – cell-based, CellTiter-Glo luminescence, IC50, dose response (AID 1117332); format: functional; conditions: HCT-116
[25] = SNU-C1 cell viability reduction, dose response, CellTiter-Glo luminescence (AID 1117323); format: functional, cell-based
[26] = cytotoxicity toward Colo320 cells – cell-based, CellTiter-Glo luminescence, IC50, dose response (AID 1117334); format: functional; conditions: COLO 320
[27] = cytotoxicity toward HT-29 cells – cell-based, CellTiter-Glo luminescence, IC50, dose response (AID 1117330); format: functional
[28] = Reduced DLD-1 viability, concentration-response, CellTiter-Glo luminescence (AID 1117352); format: functional

Chain of Voltage-gated inwardly rectifying potassium channel KCNH2 (Q12809 whole entry): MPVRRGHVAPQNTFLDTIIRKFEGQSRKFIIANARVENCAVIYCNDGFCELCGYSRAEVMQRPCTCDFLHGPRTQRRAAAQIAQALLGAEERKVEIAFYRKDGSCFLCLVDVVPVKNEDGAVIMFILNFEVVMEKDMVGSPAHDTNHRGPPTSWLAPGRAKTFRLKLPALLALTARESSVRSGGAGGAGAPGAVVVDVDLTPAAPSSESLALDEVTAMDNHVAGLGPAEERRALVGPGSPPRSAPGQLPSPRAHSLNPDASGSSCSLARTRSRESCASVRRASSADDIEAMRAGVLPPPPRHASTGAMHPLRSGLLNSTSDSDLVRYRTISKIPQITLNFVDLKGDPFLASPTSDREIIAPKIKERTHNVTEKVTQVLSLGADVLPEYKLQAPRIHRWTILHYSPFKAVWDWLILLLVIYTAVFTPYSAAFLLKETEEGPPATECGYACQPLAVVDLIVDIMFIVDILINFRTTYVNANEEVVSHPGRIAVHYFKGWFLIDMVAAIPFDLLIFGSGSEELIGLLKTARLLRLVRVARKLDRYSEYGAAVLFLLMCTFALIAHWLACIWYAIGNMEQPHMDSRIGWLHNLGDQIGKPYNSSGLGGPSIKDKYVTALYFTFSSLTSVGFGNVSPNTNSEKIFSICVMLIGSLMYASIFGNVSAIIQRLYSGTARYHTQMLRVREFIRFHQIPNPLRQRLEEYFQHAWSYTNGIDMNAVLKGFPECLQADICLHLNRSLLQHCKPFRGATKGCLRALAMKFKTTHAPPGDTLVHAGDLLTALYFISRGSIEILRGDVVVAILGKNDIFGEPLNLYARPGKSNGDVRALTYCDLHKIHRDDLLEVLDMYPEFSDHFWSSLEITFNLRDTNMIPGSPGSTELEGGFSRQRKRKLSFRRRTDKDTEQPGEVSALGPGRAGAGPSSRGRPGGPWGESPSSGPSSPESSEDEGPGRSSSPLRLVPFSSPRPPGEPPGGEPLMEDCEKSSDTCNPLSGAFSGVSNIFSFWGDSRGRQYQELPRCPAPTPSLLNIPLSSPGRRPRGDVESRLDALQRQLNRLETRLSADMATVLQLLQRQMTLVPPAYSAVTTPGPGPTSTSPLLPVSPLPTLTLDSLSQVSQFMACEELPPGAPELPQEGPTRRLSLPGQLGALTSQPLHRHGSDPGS

For `O=C(NC(=S)Nc1nc(-c2ccccc2)cs1)c1cncc(Br)c1`, the EC50 [1] was 11.2 µM (active), the IC50 [2] was > 66 µM (inactive) and the IC50 [3] was > 66 µM (inactive).

With `CN(C)S(=O)(=O)c1ccc(C(=O)Oc2cc(O)nc3ccccc23)cc1` the IC50 (Prothrombin) was 0.812 µM (active).

For `COc1ccc(-n2c(C)cc(/C=C3\SC(=S)N(Cc4ccco4)C3=O)c2C)cc1`, the EC50 [4] was > 300 µM (not active), the IC50 [5] was 38 µM (not active) and the EC50 [6] was 121 µM (active). For the same molecule, the IC50 (Insulin-degrading enzyme) was > 55.9 µM (not active).

For `CCc1ccccc1N1C(=O)CC(=O)NC1=O`, the IC50 (Prothrombin) was > 50 µM (not active).

With `C[C@H](CO)N1C[C@H](C)[C@H](CN(C)S(=O)(=O)c2ccc(Cl)cc2)OCc2ccccc2-c2c(n(C)c3ccccc23)C1=O` the AC50 (Paired box protein Pax-8) was 4.86 µM (active), the IC50 [7] was 9.56 µM (active) and the AC50 [8] was 26.2 µM (active). For the same molecule, the AC50 [9] was 62.3 µM (active), the AC50 [10] was 41.6 µM (active) and the IC50 [11] was > 69.5 µM (inactive). For the same molecule, the AC50 [12] was 0.193 µM (active), the AC50 [13] was 35.5 µM (active) and the AC50 [14] was < 0.35 µM (active). The AC50 [15] was 0.0741 µM (active), the AC50 [16] was 0.129 µM (active) and the EC50 (HEK293 [17]) was > 59.7 µM (inactive). For the same molecule, the EC50 (HEK293 [18]) was > 59.7 µM (inactive).

In the case of `CC(c1nc2ccccc2[nH]1)n1c(=O)c(-c2cccs2)nc2ccccc21` (centres undefined), the EC50 (Kallikrein-7) is reported as 8.14 µM (active).

With `C[C@H](CO)N1C[C@H](C)[C@@H](CN(C)Cc2ccncc2)Oc2ccc(NC(=O)Nc3ccc(C(F)(F)F)cc3)cc2CC1=O` the AC50 (Paired box protein Pax-8) was 5.69 µM (active), the AC50 [19] was 37.6 µM (active) and the AC50 [20] was 32.5 µM (active). For the same molecule, the AC50 [8] was 22.8 µM (active), the AC50 [9] was 26.8 µM (active) and the AC50 [10] was > 70 µM (inactive).

For `Cc1oncc1C(=O)Nc1ccc(C(F)(F)F)cc1` [LEFLUNOMIDE], the EC50 [21] was 0.84 µM (active), the EC50 (HT-1080) was > 50 µM (not active) and the AC50 (Cytochrome P450 2C19) was 15.8 µM (inconclusive).

With `NC(=O)N/N=C/c1ccc([N+](=O)[O-])o1` [NITROFURAZONE] the IC50 [22] was > 20 µM (inactive), the IC50 [23] was > 20 µM (inactive) and the IC50 [24] was > 20 µM (inactive). The IC50 [25] was > 20 µM (inactive), the IC50 [26] was > 20 µM (inactive) and the IC50 [27] was > 20 µM (inactive). For the same molecule, the IC50 [28] was > 20 µM (inactive).
